Results reported in US8507562B2, “Synthesis of (1)-beta-elemene, (-)-beta-elemenal, (-)-beta-elemenol, (-)-beta-elemene fluoride and their analogues, intermediates, and composition and uses thereof” (HYWE Pharmaceuticals, Inc., priority 2004, dated 2013).
Where two headings read alike, the source gives them in different places.

How the values were obtained:
[1] = tested on: Colon Cancer Cells Caco-2; experiment: MTS cell viability assay; assay type: cell-based, human; conditions: combinations with Elemene 100 μg/ml, n = 8
Method: (§2) Cells were maintained at 37° C. in a humidified atmosphere including 5% CO2. […] Drugs were dissolved in 100% DMSO and then diluted in medium for experiments.

[2] = tested on: human glioma SHG-44G (xenograph under skin); experiment: Xenograph under skin, injection directly into tumor; assay type: in vivo, nude mice; conditions: for Tumor Weight X ± SD: in g (unit assumed)
From the text: The mice were killed after 3 weeks.
Nude mice grew on the cengliu rack.

[3] = tested on: Colon Cancer Cells Colo 205; experiment: MTS cell viability assay; conditions: Colo 205, drug alone
Method: as §2

[4] = tested on: BEL-7402 cells; conditions: BEL-7402 cells after 6 weeks of induction with Elemene at 48.9 ug/ml; cited from earlier work
[5] = Blood brain barrier passage of 3H labeled Elemene; assay type: in vivo, experimental animals; conditions: own animal experiment, tritium labeled, parent, derivatives and/or metabolites not distinguished
From the text: But no careful experiments were done to figure out if it is beta-elemene itself, or its derivatives, or its metabolite or a combination of the above, which pass the BBB. Thus how Elemene works to treat brain tumor is unknown.

[6] = tested on: human glioma G422 (xenograph in brain); experiment: Tumor xenographed in mice brain, survival; assay type: in vivo
Method: (§1) Mice model with tumor xenographed in mice brain: Glioma cell line G-422 or SHG44 (log phase) were diluted to 2×10^7/ml in cell culture hood (no bacteria environment). Each mouse was injected with 0.05 ml of tumor cell in its brain. […] The survival time of these mice was recorded in the next 30 days. The life extension was calculated using the following formula: Life Extension Rate=[( […])/Average survival days of control group[×100 Results: […]

[7] = tested on: H-460 lung cancer; experiment: MTT survival assay; assay type: cell-based, human; conditions: 2 × 10^4 cells/ml
Method: (§3) The MTT assay is a commonly used method in evaluation of cell survival, based on the ability of viable cells to convert MTT, a soluble tetrazolium salt [3-(4,5-dimethylthuazole-2-yl)-2,5 diphenyl tetrazolium bromide], into an insoluble formazan precipitate, which is quantitated by spectrophotometry following solubilization in dimethyl sulfoxide (DMSO).
(§4) The cells were then solubilized in 125 μl of DMSO and absorbance readings were taken using a 96-well Opsys MRI Microplate Reader (ThermoLabsystems; Chantilly, Va.). The amount of MTT dye reduction was calculated based on the difference between absorbance at 570 nm and at 630 nm. Cell viability in treated cells was expressed as the amount of dye reduction relative to that of untreated control cells. The wells which contained only medium and 10 μl of MTT were used as blanks for the plate reader. Three sets of experiments were performed in 8-12 wells for each treatment.
In brief, carcinoma cells treated with test articles alone, in 96-well tissue culture dishes were incubated with MTT (2 μg/ml) for 4 h. The cells were then solubilized in 125 μl of DMSO and absorbance readings were taken using a 96-well Opsys MRI Microplate Reader (ThermoLabsystems; Chantilly, Va.). The amount of MTT dye reduction was calculated based on the difference between absorbance at 570 nm and at 630 nm. Cell viability in treated cells was expressed as the amount of dye reduction relative to that of untreated control cells. The wells that contained only medium and 10 μl of MTT were used as blanks for the plate reader.
(§5) The cells were then solubilized in 125 μl of DMSO and absorbance readings were taken using a 96-well Opsys MRI Microplate Reader (ThermoLabsystems; Chantilly, Va.). The amount of MTT dye reduction was calculated based on the difference between absorbance at 570 nm and at 630 nm. Cell viability in treated cells was expressed as the amount of dye reduction relative to that of untreated control cells. The wells which contained only medium and 10 μI of MTT were used as blanks for the plate reader. Three sets of experiments were performed in 8-12 wells for each treatment.

[8] = Chronic toxicity study, 28 days i.p.; assay type: in vivo; conditions: rats
Method: In the Rat study, three groups of rats (n=20 per group, half male and half female) were given (i.p.) 7.5, 15, or 30 mg/kg/d of β-Elemene for 28 days consecutively. […] Ascites were not completely absorbed during 4 weeks without drug intake. […] The accumulated toxicity of β-Elemene (via i.p.) was not severe, except irritation at local injection site. The safe dose was 7.5 mg/kg/d.

[9] = tested on: Colon Cancer Cells HCT-15; experiment: MTS cell viability assay; conditions: combinations with Elemene 160 μg/ml, n = 8
Method: as §2

[10] = tested on: A-172 brain tumor; experiment: MTT survival assay; assay type: cell-based, human; conditions: A172, 72 h
Method: as §3, §4, §5

[11] = tested on: human lung cancer A549
[12] = tested on: human breast cancer ao10/17
[13] = tested on: human liver cancer QGY
[14] = tested on: human glioma SHG44 (xenograph in brain); experiment: Tumor xenographed in mice brain, survival; assay type: in vivo, nude mice; conditions: for Survival time as % of control (T/C): compared to control
Method: as §1

[15] = tested on: Non-small-cell lung cancer (NSCLC) cell lines; experiment: Mechanism in NSCLC cells
[16] = tested on: STTG1 brain tumor; experiment: MTT survival assay; assay type: cell-based, human
Method: as §3, §4

[17] = tested on: human breast cancer Bcap-37
[18] = 25 mg/kg/time iv × 10 bid, listed as β-Elemene
[19] = 12.5 mg/kg/time iv × 10 bid, listed as β-Elemene
[20] = 50 mg/kg/time iv × 10 bid, listed as β-Elemene

(−)-Beta-elemene gave an IC50 ([1]; Caco-2, 4 hr/24 hr × 2) of 91.0 ± 7.55 µg/mL, an IC50 ([1]; Caco-2, 4 hr/24 hr × 3) of 81.1 ± 10.3 µg/mL and an IC50 ([1]; Caco-2, 4 hr/24 hr) of 108 ± 2.55 µg/mL. The IC50 ([1]; Caco-2, 4 hr) was 171 ± 16.0 µg/mL, the IC50 ([1]; Caco-2, 8 hr) was 167 ± 32.9 µg/mL and the IC50 ([1]; Caco-2, 12 hr) was 104 ± 10.7 µg/mL. The IC50 ([1]; Caco-2, 24 hr) was 107 ± 6.00 µg/mL, the IC50 ([1]; Caco-2, 48 hr) was 91.0 ± 7.51 µg/mL and the IC50 ([1]; Caco-2, 72 hr) was 89.1 ± 9.08 µg/mL. For the same substance, the “Inhibition Rate %” value ([2]; 15 mg/kg it × 10 qd) was 37.83%, the “Tumor Weight X ± SD” value ([2]; 15 mg/kg it × 10 qd) was 1.15 ± 0.33 and the “Inhibition Rate %” value ([2]; 30 mg/kg it × 10 qd) was 51.35%. The “Tumor Weight X ± SD” value ([2]; 30 mg/kg it × 10 qd) was 0.90 ± 0.17, the “Inhibition Rate %” value ([2]; 60 mg/kg it × 10 qd) was 63.24% and the “Tumor Weight X ± SD” value ([2]; 60 mg/kg it × 10 qd) was 0.68 ± 0.19. The IC50 ([3]; Time 4 hr, n = 8) was 144 ± 10.4 µg/mL, the IC50 ([3]; Time 4 hr/24 hr × 2, n = 8) was 82.3 ± 7.11 µg/mL and the IC50 ([3]; Time 4 hr/24 hr × 3, n = 8) was 56.7 ± 12.6 µg/mL. It also gave an IC50 ([3]; Time 4 hr/24 hr, n = 8) of 96.3 ± 11.1 µg/mL, an IC50 ([3]; Time 8 hr, n = 8) of 116 ± 4.00 µg/mL and an IC50 ([3]; Time 12 hr, n = 8) of 110 ± 9.51 µg/mL. It also gave an IC50 ([3]; Time 24 hr, n = 8) of 83.0 ± 13.7 µg/mL, an IC50 ([3]; Time 48 hr, n = 8) of 75.3 ± 5.04 µg/mL and an IC50 ([3]; Time 72 hr, n = 8) of 77.7 ± 14.2 µg/mL. The “expression of MDR1 mRNA or P-glycoprotein (P-gp)” value [4] was “did not express MDR1 mRNA or P-glycoprotein (P-gp)”, the “blood brain barrier (BBB) passage” value [5] was “pass the blood-brain-barrier” and the “blood brain barrier (BBB) passage” value ([5]; listed as beta-elemene) was “can pass blood brain barrier”. The “Average Life Span (day) X± SD” value ([6]; 7.5 mg/kg/time iv × 10 qd) was 12.3 ± 3.4 days, the “Average Life Span (day) X± SD” value ([6]; 15 mg/kg/time iv × 10 qd) was 13.1 ± 2.7 days and the “Average Life Span (day) X± SD” value ([6]; 30 mg/kg/time iv × 10 qd) was 14.1 ± 2.3 days. The “Average Life Span (day) X± SD” value ([6]; 60 mg/kg/time iv × 10 qd) was 14.9 ± 2.1 days, the IC50 ([7]; H460, 24 h) was 89.5 µg/mL and the IC50 ([7]; H460, 48 h) was 70.6 µg/mL. For the same substance, the IC50 ([7]; H460, 72 h) was 68.2 µg/mL, the “changes, low dose group” value ([8]; 7.5 mg/kg/d i.p., 28 days) was “No significant changes” and the “mortality, high dose group” value ([8]; 30 mg/kg/d i.p., 28 days, n=20) was “Six rats in high dose group died”. The “ascites, medium and high dose groups” value ([8]; 15 and 30 mg/kg/d i.p., 28 days) was “Ascites were developed in all animals”, the safe dose ([8]; i.p., 28 days consecutively) was 7.5 mg/kg/day and the IC50 ([9]; HCT-15, 4 hr/24 hr × 2) was 199 ± 11.5 µg/mL. The IC50 ([9]; HCT-15, 4 hr/24 hr × 3) was 165 ± 23.0 µg/mL, the IC50 ([9]; HCT-15, 4 hr/24 hr) was 214 ± 15.8 µg/mL and the IC50 ([9]; HCT-15, 4 hr) was 229 ± 26.9 µg/mL. It also gave an IC50 ([9]; HCT-15, 8 hr) of 215 ± 34.1 µg/mL, an IC50 ([9]; HCT-15, 12 hr) of 202 ± 21.8 µg/mL and an IC50 ([9]; HCT-15, 48 hr) of 197 ± 12.7 µg/mL. The IC50 ([9]; HCT-15, 72 hr) was 197 ± 22.3 µg/mL, the IC50 [10] was 80 µg/mL and the “Inhibition Rate %” value ([11]; 12.5 mg/kg/time iv × 10 bid) was 31.28%. The “Tumor Weight (g) X ± SD” value ([11]; 12.5 mg/kg/time iv × 10 bid) was 1.34 ± 0.10 g, the “Tumor Weight (g) X ± SD” value ([11]; 25 mg/kg/time iv × 10 bid) was 1.17 ± 0.09 g and the “Inhibition Rate %” value [11, 18] was 40.0%. For the same substance, the “Inhibition Rate %” value ([11]; 50 mg/kg/time iv × 10 bid) was 43.08%, the “Tumor Weight (g) X ± SD” value ([11]; 50 mg/kg/time iv × 10 bid) was 1.11 ± 0.08 g and the “Inhibition Rate %” value ([12]; 12.5 mg/kg/time iv × 10 bid) was 28.28%. The “Tumor Weight (g) X ± SD” value ([12]; 12.5 mg/kg/time iv × 10 bid) was 0.827 ± 0.06 g, the “Inhibition Rate %” value [12, 19] was 31.08% and the “Inhibition Rate %” value ([12]; 25 mg/kg/time iv × 10 bid) was 35.03%. The “Tumor Weight (g) X ± SD” value ([12]; 25 mg/kg/time iv × 10 bid) was 0.765 ± 0.1 g, the “Inhibition Rate %” value [12, 18] was 36.25% and the “Inhibition Rate %” value ([12]; 50 mg/kg/time iv × 10 bid) was 44.14%. The “Tumor Weight (g) X ± SD” value ([12]; 50 mg/kg/time iv × 10 bid) was 0.643 ± 0.1 g, the “Inhibition Rate %” value [12, 20] was 46.42% and the “Inhibition Rate %” value ([13]; 12.5 mg/kg/time iv × 10 bid) was 30.92%. The “Tumor Weight (g) X ± SD” value ([13]; 12.5 mg/kg/time iv × 10 bid) was 1.43 ± 0.12 g, the “Inhibition Rate %” value ([13]; 25 mg/kg/time iv × 10 bid) was 37.20% and the “Tumor Weight (g) X ± SD” value ([13]; 25 mg/kg/time iv × 10 bid) was 1.30 ± 0.18 g. For the same substance, the “Inhibition Rate %” value ([13]; 50 mg/kg/time iv × 10 bid) was 45.89%, the “Tumor Weight (g) X ± SD” value ([13]; 50 mg/kg/time iv × 10 bid) was 1.12 ± 0.19 g and the “Average Life Span (day) X± SD” value ([14]; 7.5 mg/kg/time iv × 10 qd) was 20.2 ± 1.7 days. For the same substance, the “Survival time as % of control (T/C)” value ([14]; 7.5 mg/kg/time iv × 10 qd) was 132.84%, the “Survival time as % of control (T/C)” value ([14]; 7.5 mg/kg/time iv × 10 qd, listed as β-Elemene) was 128.72% and the “Average Life Span (day) X± SD” value ([14]; 15 mg/kg/time iv × 10 qd) was 21.8 ± 1.9 days. For the same substance, the “Survival time as % of control (T/C)” value ([14]; 15 mg/kg/time iv × 10 qd) was 140.46%, the “Survival time as % of control (T/C)” value ([14]; 15 mg/kg/time iv × 10 qd, listed as β-Elemene) was 139.31% and the “Average Life Span (day) X± SD” value ([14]; 30 mg/kg/time iv × 10 qd) was 23.3 ± 3.6 days. The “Survival time as % of control (T/C)” value ([14]; 30 mg/kg/time iv × 10 qd) was 150.37%, the “Survival time as % of control (T/C)” value ([14]; 30 mg/kg/time iv × 10 qd, listed as β-Elemene) was 148.69% and the “Average Life Span (day) X± SD” value ([14]; 60 mg/kg/time iv × 10 qd) was 25.2 ± 3.1 days. The “Survival time as % of control (T/C)” value ([14]; 60 mg/kg/time iv × 10 qd) was 159.81%, the “Survival time as % of control (T/C)” value ([14]; 60 mg/kg/time iv × 10 qd, listed as β-Elemene) was 160.36% and the apoptosis [15] was “triggered apoptosis”. The cell cycle effect [15] was “arrest NSCLC cells at cell cycle G2-M phase”, the IC50 ([16]; STTG1, 24 h) was 112 µg/mL and the IC50 ([16]; STTG1, 48 h) was 115 µg/mL. The IC50 ([16]; STTG1, 72 h) was 112 µg/mL, the “Inhibition Rate %” value ([17]; 12.5 mg/kg/time iv × 10 bid) was 36.09% and the “Tumor Weight (g) X ± SD” value ([17]; 12.5 mg/kg/time iv × 10 bid) was 0.870 ± 0.04 g. For the same substance, the “Inhibition Rate %” value [17, 19] was 33.08%, the “Inhibition Rate %” value ([17]; 25 mg/kg/time iv × 10 bid) was 45.31% and the “Tumor Weight (g) X ± SD” value ([17]; 25 mg/kg/time iv × 10 bid) was 0.738 ± 0.07 g. For the same substance, the “Inhibition Rate %” value [17, 18] was 43.23%, the “Inhibition Rate %” value ([17]; 50 mg/kg/time iv × 10 bid) was 51.33% and the “Tumor Weight (g) X ± SD” value ([17]; 50 mg/kg/time iv × 10 bid) was 0.675 ± 0.10 g. For the same substance, the “Inhibition Rate %” value [17, 20] was 48.08%.
